Source: patent US7105521B2, “Eugenosedin-A based pharmacoligical agents” (Syn-Tech Chem & Pharm Co., Ltd., priority 2003, dated 2006)
pKi: −log10 of the molar value. Entries after “also recorded” stand apart in the source; their conditions may differ.

Assays:
[1] = Intra-cisternal injections: mean arterial BP and HR; assay type: in vivo, rats
Description: (§1) Intra-cisternal injections. […] Briefly, rats weighing 250–300 g were anaesthetized with pentobarbital sodium (50 mg kg^−1, i.p.) and mounted in a David-Kopf stereotaxic instrument (Yeh J L. et al., Brain. Res. Bull., 30:641–648, 1993). The calvarium was exposed and a 1 mm diameter trephine hole was drilled 1.8 mm lateral to the coronary and 1.5 mm posterior to the sagittal sutures. A cannula (0.7 mm O.D.) connected to a Hamilton syringe (RN-705, 5051) by PE-50 was advanced 4.7 mm into the brain using the electrode carrier.

[2] = tested on: α2-adrenoceptor; test: Intra-cisternal antagonism of clonidine-induced hypotension and bradycardia; assay type: in vivo, rats
Description: as §1

[3] = Micro-injection in NTS: BP and HR; assay type: in vivo, rats; details: NTS micro-injection, 0.03, 0.3 μmol, within 30 minutes after injection
Excerpt: Micro-injection in NTS. Rats were anesthetized and placed in a David-Kopf stereotaxic instrument. The cerebellum was exposed after removing the skin and occipital bone. […] At the end of experiments, the animals were sacrificed. The brain was removed and sectioned for histological confirmation of the drug application site.

[4] = tested on: α1-adrenoceptors; test: Noradrenaline-induced contraction of isolated rat thoracic aorta; assay type: cell-based; details: 10^−8, 10^−7, 10^−6 M
Excerpt: (§2) Isolation of rat thoracic aorta. Rat thoracic aorta was removed, cleaned of adhering fat and connective tissue and cut into 3–4 mm wide transverse rings.

[5] = molecular target: α1 receptors; test: Receptor binding, [3H]prazosin, rat cortex; design: species or system Wistar rat
Description: (§3) Drugs and chemicals. […] Eugenosedin-A synthesized in this laboratory was solvated in 50% absolute alcohol, 10% propylene glycol and further diluted with distilled water. All of the [^3H] ligand was purchased from New England Nuclear Corp. (Boston, Mass., U.S.A.).
(§4) Receptor binding studies. […] The homogenate was pressure filtered through muslin. Filtrate was centrifuged at 1000 g for 10 min. Supernatant was centrifuged at 10,000 g for 12 min at 4° C. The second supernatant was centrifuged at 30,000 g for 15 min at 4° C. The final pellet was re-suspended in assay buffer (75 mM Tris HCl, 25 mM MgCl2, pH 7.4). Protein content was determined by Bradford's method. Radioligand agents and membranes (200–300 μg) were incubated for 60 min at 25° C. with or without the addition of nonspecific binding agents, in a 75 mM Tris HCl buffer with 25 mM MgCl2, to make a final volume of 500 μl. In competitive-binding experiments, the competing agent was added directly to the incubation mixture. Incubation was terminated by addition of 1 ml of ice-cold assay buffer followed by immediate filtration through Whatman GF/C glass fiber filters supported on a 12-port filter manifold (Millipore). The filters were immediately washed 3 times with 5 ml of ice-cold assay buffer and dried in an oven at 60° C. for 2 hours before adding 5 ml of Triton-toluene-based scintillation fluid. Membrane-bound radioligand trapped in the filters was counted in a Beckman LS6500 scintillation system (Fullerton, Calif., U.S.A) with an efficiency of 45%. In each experiment, nonspecifically bound radioligand agents were determined by incubating membrane protein. Specific binding for each sample was obtained by deducting this value from the total binding of radioligand agents.

[6] = molecular target: T1, β2 receptors (Rattus norvegicus, UniProt P10608); test: Receptor binding, [3H]CGP-12177, rat lung; design: species or system Wistar rat
T1 construct: with [^3H]CGP-12177 on β2 receptors in rat lung; from tissue; host or cells: Wistar rat lung membranes
Description: as §3
as §4, with “Incubation was terminated by addition of 1 ml of ice-cold assay buffer followed by immediate filtration through Whatman GF/C glass fiber filters supported on a 12-port filter manifold (Millipore). The filters were immediately washed 3 times with 5 ml of ice-cold assay buffer and dried in an oven at 60° C. for 2 hours before adding 5 ml of Triton-toluene-based scintillation fluid.” left out, “Specific binding for each sample was obtained by deducting this value from the total binding of radioligand agents.” left out

[7] = molecular target: T2, β1 receptors (Rattus norvegicus, UniProt P18090); test: Receptor binding, [3H]CGP-12177, rat ventricle; design: species or system Wistar rat
T2 construct: with [^3H]CGP-12177 on β1 receptors in rat ventricle; from tissue; host or cells: Wistar rat heart (ventricle) membranes
Description: as §3
as §4, with “Incubation was terminated by addition of 1 ml of ice-cold assay buffer followed by immediate filtration through Whatman GF/C glass fiber filters supported on a 12-port filter manifold (Millipore). The filters were immediately washed 3 times with 5 ml of ice-cold assay buffer and dried in an oven at 60° C. for 2 hours before adding 5 ml of Triton-toluene-based scintillation fluid.” left out, “Specific binding for each sample was obtained by deducting this value from the total binding of radioligand agents.” left out

[8] = Peroxyl radical scavenging, B-phycoerythrin/AAPH; assay type: biochemical
Description: The stoichiometric factors of the test compounds with hydrophilic peroxyl radicals were calculated by the equation as mentioned Ascorbic acid was used as a positive control.

[9] = LPS-induced vascular hyporeactivity of isolated aorta to phenylephrine; assay type: in vivo, rats
Excerpt: as §2

[10] = tested on: IL-1β; test: Plasma cytokine immunoreactivity after LPS: IL-1β; assay type: in vivo, Wistar rats; details: 3 hours after LPS 10 mg kg^−1 i.v.; pretreatment (eugenosedin-A 1 mg kg^−1 i.v.)
Description: (§5) Plasma cytokine immunoreactivity and blood glucose. Blood was collected from venous cannula, injected into ice-cold heparinized Eppendorf tubes and centrifuged at 1500 rpm for 10 min at 4° C. Plasma supernatant was stored at −70° C. until analyzed. Solid phase enzyme immunoassay that specifically detects murine IL-1β, IL-6, IFN-γ and TNF-α was used with a detection limit of >10 pg/ml (Endogen, U.S.A). Pretreatment with eugenosedin-A and other agents was performed 15 minutes before intravenous injection of LPS. Blood was collected from venous cannula. Blood glucose was measured with a glucose test strip (Glucotide, Bayer, U.S.A) at 1, 3 and 5 hours.

[11] = tested on: IL-6; test: Plasma cytokine immunoreactivity after LPS: IL-6; assay type: in vivo, Wistar rats; details: 3 hours after LPS 10 mg kg^−1 i.v.; pretreatment 1 mg kg^−1 i.v.
Description: as §5

[12] = tested on: IFN-γ; test: Plasma cytokine immunoreactivity after LPS: IFN-γ; assay type: in vivo, Wistar rats; details: 3 hours after LPS 10 mg kg^−1 i.v.; pretreatment 1 mg kg^−1 i.v.
Description: as §5

[13] = Blood glucose after LPS; assay type: in vivo, Wistar rats
Description: as §5

[14] = Survival rate after LPS; assay type: in vivo, ddk mice; details: pretreatment 0.5, 1, 5 mg kg^−1 i.p., LPS 60 mg kg^−1
[15] = molecular target: T3, 5-HT2A receptor (Rattus norvegicus, UniProt P14842); test: 5-HT-induced contraction of isolated rat thoracic aorta; assay type: cell-based; design: from tissue; host or cells: rat thoracic aorta rings
Excerpt: as §2

[16] = molecular target: T3, 5-HT2A receptor; test: Receptor binding, [3H]ketanserin, rat cortex; design: from tissue; host or cells: Wistar rat cortex membranes; species or system Wistar rat
Description: as §3, §4

T3 sequence (P14842 whole entry): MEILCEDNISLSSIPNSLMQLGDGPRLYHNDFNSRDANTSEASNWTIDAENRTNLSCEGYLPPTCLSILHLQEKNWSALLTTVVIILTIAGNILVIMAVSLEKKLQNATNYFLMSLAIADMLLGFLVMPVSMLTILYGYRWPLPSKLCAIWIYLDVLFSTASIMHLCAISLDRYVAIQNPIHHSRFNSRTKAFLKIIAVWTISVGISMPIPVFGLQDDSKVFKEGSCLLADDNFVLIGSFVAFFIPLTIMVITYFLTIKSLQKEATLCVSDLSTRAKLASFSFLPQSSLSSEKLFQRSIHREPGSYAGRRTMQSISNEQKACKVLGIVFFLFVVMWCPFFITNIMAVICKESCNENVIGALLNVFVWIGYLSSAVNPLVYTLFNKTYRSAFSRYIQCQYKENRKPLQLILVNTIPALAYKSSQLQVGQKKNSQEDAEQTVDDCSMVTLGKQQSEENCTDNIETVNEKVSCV
T1 sequence (P10608 whole entry): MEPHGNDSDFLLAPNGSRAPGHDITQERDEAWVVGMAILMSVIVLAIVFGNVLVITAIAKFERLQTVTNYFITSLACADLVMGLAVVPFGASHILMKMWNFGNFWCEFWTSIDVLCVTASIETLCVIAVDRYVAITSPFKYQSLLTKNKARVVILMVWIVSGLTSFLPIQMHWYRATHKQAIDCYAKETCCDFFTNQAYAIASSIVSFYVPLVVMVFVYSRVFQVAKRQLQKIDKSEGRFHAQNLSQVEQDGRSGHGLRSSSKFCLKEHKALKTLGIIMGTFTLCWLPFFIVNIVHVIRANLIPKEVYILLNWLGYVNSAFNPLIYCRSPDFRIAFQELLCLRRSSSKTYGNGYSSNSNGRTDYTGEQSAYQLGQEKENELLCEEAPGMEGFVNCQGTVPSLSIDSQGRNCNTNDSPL
T2 sequence (P18090 whole entry): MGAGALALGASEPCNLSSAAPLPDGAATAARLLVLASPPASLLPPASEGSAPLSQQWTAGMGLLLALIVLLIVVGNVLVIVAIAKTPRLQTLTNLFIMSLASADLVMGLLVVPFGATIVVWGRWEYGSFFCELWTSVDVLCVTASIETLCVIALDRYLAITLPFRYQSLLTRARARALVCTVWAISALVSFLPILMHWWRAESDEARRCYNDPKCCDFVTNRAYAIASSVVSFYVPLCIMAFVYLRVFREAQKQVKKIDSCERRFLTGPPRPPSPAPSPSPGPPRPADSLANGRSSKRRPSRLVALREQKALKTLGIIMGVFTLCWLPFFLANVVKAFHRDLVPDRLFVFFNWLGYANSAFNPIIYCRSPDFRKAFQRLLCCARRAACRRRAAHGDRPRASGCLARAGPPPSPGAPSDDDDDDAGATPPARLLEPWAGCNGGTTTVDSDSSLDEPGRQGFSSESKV

## CC=Cc1ccc(OCC(O)CN2CCN(c3ccccc3Cl)CC2)c(OC)c1 (stereo not drawn) [eugenosedin-A]
[1]; 0.3 μmol
  increase of HR: up to 60 bpm
  pressor response: up to 15 mmHg
[1]; eugenosedin-A and trazodone 0.3, 0.03 μmol, yohimbine 0.03 μmol
  effect on mean arterial BP and HR: increased mean arterial BP and HR
[2]; 0.3 μmol
  bradycardic effect of clonidine: reduced the bradycardic effect of clonidine
[2]; given 15 min before clonidine injection
  hypotensive effect of clonidine: antagonized the hypotensive effect of clonidine
[2]; low dose, 0.03 μmol
  clonidine-induced bradycardia: did not inhibit clonidine-induced bradycardia
[3]
  pressor response and HR: mild, but significant, pressor responses and increased the HR
[4]
  cumulative noradrenaline-induced contractile activities: competitively inhibited
[5]
  pKi: 6.85
  order of α1 receptor binding potency: prazosin >ketanserin >eugenosedin-A >methylsergide, propranolol and 5-HT
[6]
  pKi: < 5.00
[7]
  binding affinity for β1-adrenoceptors: some binding affinity for β1-adrenoceptors
[8]
  scavenging of AAPH-derived peroxyl radicals (B-phycoerythrin fluorescence, lag time): concentration-dependent decrement of fluorescence and prolongation of the lag time
[9]; 1 mg kg^−1 i.v. before or after LPS, phenylephrine 10^−8~10^−4 M
  aortic contractility to phenylephrine in LPS-treated rats: increased aortic contractility more than the vehicle group
[9]; rat, in vivo
  protection from LPS-induced hyporeactivity of the aorta compared with yohimbine, trazodone, aminoguanidine and ascorbic acid: more effective
[10]
  LPS-induced increase in IL-1β: significantly inhibited
[11]
  LPS-induced increase in IL-6: significantly inhibited
[12]
  LPS-induced increase in IFN-γ: significantly inhibited
[13]; blood glucose at 1 and 3 hours after LPS
  initial hyperglycemic response to LPS: inhibited the initial hyperglycemic response to LPS
[13]; blood glucose at 5 hours after LPS
  hypoglycemic response to LPS: did not reverse the hypoglycemic response
[14]; at 12 hrs
  survival rate after LPS: significantly increased
[14]
  time of LPS-induced death: 36 h
[15]
  Kb: 2.09 nM
[15]; 10^−8, 10^−7, 10^−6 M, isolated rat thoracic aorta
  5-HT-induced contractile activities: concentration-dependently inhibited
[16]
  binding affinity for 5-HT2A receptors: higher binding affinity than other β-adrenergic antagonists; also recorded: higher binding affinity than propranolol
  order of potency on 5-HT2A receptors: ketanserin >methylsergide >eugenosedin-A >5-HT >propranolol >prazosin
[16]; [3H]ketanserin, rat cortex
  pKi: 7.48
